# Measurements as given in patent publication US9951028B2, “Agricultural chemicals” (REDAG CROP PROTECTION LTD, priority 2013, dated 2018).
# Columns and labels:
# Assay in all cases: Herbicidal efficacy screen, corrected necrosis
# Format in all cases: in vivo
# [1] = system: Amaranthus retroflexus (redroot pigweed)
# Procedure: (§1) Plants were obtained as seeds and were grown to the 2-4 true leaf stage. Plants were grown under laboratory conditions, individually in seed trays. Each plant (in an approximately 3 cm diameter plug) was then detached from the tray for spraying. The compounds were screened at a range of five concentrations, diluted in acetone and Tween™. A carrier only control was also conducted. Treatments were applied directly onto the plants, using a potter tower, at a specified application rate. One plant of each species was sprayed using a potter tower. The 3 different types of plants were placed on a 10 cm diameter platform directly beneath the potter sprayer and sprayed simultaneously. The growth of the plants and any Phytotoxicity effects were then assessed at intervals over 21 days, according to EPPO guideline PP1/135. In the tables below C represents a percentage increase in necrosis relative to the control of 0.1-50; B represents a percentage inhibition of 50-80; and A represents a percentage inhibition of 80-100. Certain compounds of the invention were screened for herbicidal efficacy against target plants: Amaranthus retroflexus (redroot pigweed), Abutilon theophrasti (China Jute): Capsella bursa-pastoris, (shepherd's-purse) Echinochloa crus-galli, Hordeum vulgare (Barley),
# [2] = system: Abutilon theophrasti (China Jute)
# Procedure: as §1
# [3] = system: Capsella bursa-pastoris, (shepherd's-purse)
# Procedure: as §1
# [4] = 6.25 g/ha, day 1 post application
# [5] = 6.25 g/ha, day 7 post application
# [6] = 12.5 g/ha, day 1 post application
# [7] = 12.5 g/ha, day 7 post application
# [8] = 25 g/ha, day 1 post application
# [9] = 25 g/ha, day 7 post application
# [10] = 50 g/ha, day 1 post application
# [11] = 50 g/ha, day 7 post application
# [12] = 100 g/ha, day 1 post application
# [13] = 100 g/ha, day 7 post application
smiles,measurement,setting,value
"CC(C)N(C)S(=O)(=O)NC(=O)c1cc(-n2c(=O)cc(C(F)(F)F)n(C)c2=O)c(F)cc1Cl [Compound 25, 2-Chloro-4-fluoro-N-(isopropyl(methyl)sulfamoyl)-5-[3-methyl-2,6-dioxo-4-(trifluoromethyl)pyrimidin-1-yl]benzamide, reference compound]",Average of corrected necrosis,[1]; [4],C (C represents a percentage increase in necrosis relative to the control of 0.1-50)
same,Average of corrected necrosis,[1]; [5],A (A represents a percentage inhibition of 80-100)
same,Average of corrected necrosis,[1]; [6],C (C represents a percentage increase in necrosis relative to the control of 0.1-50)
same,Average of corrected necrosis,[1]; [7],A (A represents a percentage inhibition of 80-100)
same,Average of corrected necrosis,[1]; [8],C (C represents a percentage increase in necrosis relative to the control of 0.1-50)
same,Average of corrected necrosis,[1]; [9],A (A represents a percentage inhibition of 80-100)
same,Average of corrected necrosis,[1]; [10],C (C represents a percentage increase in necrosis relative to the control of 0.1-50)
same,Average of corrected necrosis,[1]; [11],A (A represents a percentage inhibition of 80-100)
same,Average of corrected necrosis,[1]; [12],C (C represents a percentage increase in necrosis relative to the control of 0.1-50)
same,Average of corrected necrosis,[1]; [13],A (A represents a percentage inhibition of 80-100)
same,Average of corrected necrosis,[2]; [4],C (C represents a percentage increase in necrosis relative to the control of 0.1-50)
same,Average of corrected necrosis,[2]; [5],A (A represents a percentage inhibition of 80-100)
same,Average of corrected necrosis,[2]; [6],C (C represents a percentage increase in necrosis relative to the control of 0.1-50)
same,Average of corrected necrosis,[2]; [7],A (A represents a percentage inhibition of 80-100)
same,Average of corrected necrosis,[2]; [8],C (C represents a percentage increase in necrosis relative to the control of 0.1-50)
same,Average of corrected necrosis,[2]; [9],A (A represents a percentage inhibition of 80-100)
same,Average of corrected necrosis,[2]; [10],C (C represents a percentage increase in necrosis relative to the control of 0.1-50)
same,Average of corrected necrosis,[2]; [11],A (A represents a percentage inhibition of 80-100)
same,Average of corrected necrosis,[2]; [12],C (C represents a percentage increase in necrosis relative to the control of 0.1-50)
same,Average of corrected necrosis,[2]; [13],A (A represents a percentage inhibition of 80-100)
same,Average of corrected necrosis,[3]; [4],0%
same,Average of corrected necrosis,[3]; [5],A (A represents a percentage inhibition of 80-100)
same,Average of corrected necrosis,[3]; [6],0%
same,Average of corrected necrosis,[3]; [7],A (A represents a percentage inhibition of 80-100)
same,Average of corrected necrosis,[3]; [8],0%
same,Average of corrected necrosis,[3]; [9],A (A represents a percentage inhibition of 80-100)
same,Average of corrected necrosis,[3]; [10],C (C represents a percentage increase in necrosis relative to the control of 0.1-50)
same,Average of corrected necrosis,[3]; [11],A (A represents a percentage inhibition of 80-100)
same,Average of corrected necrosis,[3]; [12],C (C represents a percentage increase in necrosis relative to the control of 0.1-50)
same,Average of corrected necrosis,[3]; [13],A (A represents a percentage inhibition of 80-100)
